{"source": "paper PMC7265341", "about": "“Quantifying CDK inhibitor selectivity in live cells” (Nature Communications, 2020)", "key": {"[1]": {"target": "CDK13/Cyclin K (Homo sapiens, UniProt Q14004)", "test": "NanoBRET live-cell target engagement, CDK13-NanoLuc/Cyclin K in HEK-293", "type": "binding", "conditions": "CDK13/K, 10µM"}, "[2]": {"target": "CDK2/Cyclin E1 (Homo sapiens, UniProt P24941)", "test": "NanoBRET live-cell target engagement, CDK2-NanoLuc/Cyclin E1 in HEK-293", "type": "binding", "conditions": "CDK2/E1, 10µM"}, "[3]": {"target": "CDK20/Cyclin H (Homo sapiens, UniProt Q8IZL9)", "test": "NanoBRET live-cell target engagement, NanoLuc-CDK20/Cyclin H in HEK-293", "type": "binding", "conditions": "10µM"}, "[4]": {"target": "CDK16/Cyclin Y (Homo sapiens, UniProt Q00536)", "test": "NanoBRET live-cell target engagement, CDK16-NanoLuc/Cyclin Y in HEK-293", "type": "binding", "conditions": "CDK16/Y, 10µM"}, "[5]": {"target": "CDK18/Cyclin Y (Homo sapiens, UniProt Q07002)", "test": "NanoBRET live-cell target engagement, CDK18-NanoLuc/Cyclin Y in HEK-293", "type": "binding", "conditions": "CDK18/Y, 10µM"}, "[6]": {"target": "CDK4/Cyclin D1 (Homo sapiens, UniProt P11802)", "sequence (P11802 whole entry)": "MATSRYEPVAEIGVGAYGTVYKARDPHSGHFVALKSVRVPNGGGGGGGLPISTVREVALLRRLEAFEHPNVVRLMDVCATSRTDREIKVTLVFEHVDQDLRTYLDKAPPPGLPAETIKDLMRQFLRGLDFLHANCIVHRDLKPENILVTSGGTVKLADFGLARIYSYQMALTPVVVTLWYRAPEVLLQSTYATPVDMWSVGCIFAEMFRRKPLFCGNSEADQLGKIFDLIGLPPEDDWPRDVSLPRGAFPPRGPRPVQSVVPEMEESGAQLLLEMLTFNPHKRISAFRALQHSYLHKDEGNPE", "sequence (P24385 whole entry partner)": "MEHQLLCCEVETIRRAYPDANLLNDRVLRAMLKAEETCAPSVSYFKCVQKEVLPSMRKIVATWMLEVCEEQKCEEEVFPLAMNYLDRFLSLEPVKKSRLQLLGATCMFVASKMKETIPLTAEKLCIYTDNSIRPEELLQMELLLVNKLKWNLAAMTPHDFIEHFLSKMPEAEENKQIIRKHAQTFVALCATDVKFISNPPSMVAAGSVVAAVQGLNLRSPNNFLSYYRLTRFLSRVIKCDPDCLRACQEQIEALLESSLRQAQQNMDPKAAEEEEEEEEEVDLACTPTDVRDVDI", "test": "NanoBRET live-cell target engagement, NanoLuc-CDK4/Cyclin D1 in HEK-293", "type": "binding", "conditions": "CDK4/D1, 10µM"}, "[7]": {"target": "CDK9/Cyclin K (Homo sapiens, UniProt P50750)", "sequence (P50750 whole entry)": "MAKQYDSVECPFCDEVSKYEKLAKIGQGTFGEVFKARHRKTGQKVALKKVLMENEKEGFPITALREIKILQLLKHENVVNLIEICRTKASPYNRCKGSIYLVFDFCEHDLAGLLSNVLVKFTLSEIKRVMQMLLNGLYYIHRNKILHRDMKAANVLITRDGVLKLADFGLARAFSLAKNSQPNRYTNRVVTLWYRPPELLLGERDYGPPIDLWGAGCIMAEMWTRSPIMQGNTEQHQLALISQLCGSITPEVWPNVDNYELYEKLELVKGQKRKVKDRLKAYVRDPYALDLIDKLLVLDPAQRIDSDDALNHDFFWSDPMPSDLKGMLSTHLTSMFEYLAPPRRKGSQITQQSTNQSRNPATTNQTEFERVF", "sequence (O75909 whole entry partner)": "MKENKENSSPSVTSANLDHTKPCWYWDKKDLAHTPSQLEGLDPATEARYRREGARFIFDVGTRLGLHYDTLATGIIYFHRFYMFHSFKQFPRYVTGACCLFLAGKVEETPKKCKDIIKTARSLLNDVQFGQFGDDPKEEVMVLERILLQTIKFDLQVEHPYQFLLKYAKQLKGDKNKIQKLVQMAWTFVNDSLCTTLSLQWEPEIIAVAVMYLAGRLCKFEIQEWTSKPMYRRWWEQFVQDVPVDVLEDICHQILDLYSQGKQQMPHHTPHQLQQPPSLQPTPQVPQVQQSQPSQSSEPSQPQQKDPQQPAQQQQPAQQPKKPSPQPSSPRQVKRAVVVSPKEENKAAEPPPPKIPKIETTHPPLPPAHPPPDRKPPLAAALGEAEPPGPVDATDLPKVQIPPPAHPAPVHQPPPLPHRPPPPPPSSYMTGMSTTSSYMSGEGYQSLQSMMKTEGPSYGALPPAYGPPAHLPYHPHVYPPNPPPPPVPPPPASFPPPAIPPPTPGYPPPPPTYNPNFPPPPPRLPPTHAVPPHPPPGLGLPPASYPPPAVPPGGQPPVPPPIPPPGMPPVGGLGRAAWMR", "test": "NanoBRET live-cell target engagement, NanoLuc-CDK9/Cyclin K in HEK-293", "type": "binding", "conditions": "CDK9/K, 10µM"}, "[8]": {"target": "T1, CDK11A/Cyclin L2 (Homo sapiens, UniProt Q9UQ88)", "T1 sequence (Q9UQ88 1-783)": "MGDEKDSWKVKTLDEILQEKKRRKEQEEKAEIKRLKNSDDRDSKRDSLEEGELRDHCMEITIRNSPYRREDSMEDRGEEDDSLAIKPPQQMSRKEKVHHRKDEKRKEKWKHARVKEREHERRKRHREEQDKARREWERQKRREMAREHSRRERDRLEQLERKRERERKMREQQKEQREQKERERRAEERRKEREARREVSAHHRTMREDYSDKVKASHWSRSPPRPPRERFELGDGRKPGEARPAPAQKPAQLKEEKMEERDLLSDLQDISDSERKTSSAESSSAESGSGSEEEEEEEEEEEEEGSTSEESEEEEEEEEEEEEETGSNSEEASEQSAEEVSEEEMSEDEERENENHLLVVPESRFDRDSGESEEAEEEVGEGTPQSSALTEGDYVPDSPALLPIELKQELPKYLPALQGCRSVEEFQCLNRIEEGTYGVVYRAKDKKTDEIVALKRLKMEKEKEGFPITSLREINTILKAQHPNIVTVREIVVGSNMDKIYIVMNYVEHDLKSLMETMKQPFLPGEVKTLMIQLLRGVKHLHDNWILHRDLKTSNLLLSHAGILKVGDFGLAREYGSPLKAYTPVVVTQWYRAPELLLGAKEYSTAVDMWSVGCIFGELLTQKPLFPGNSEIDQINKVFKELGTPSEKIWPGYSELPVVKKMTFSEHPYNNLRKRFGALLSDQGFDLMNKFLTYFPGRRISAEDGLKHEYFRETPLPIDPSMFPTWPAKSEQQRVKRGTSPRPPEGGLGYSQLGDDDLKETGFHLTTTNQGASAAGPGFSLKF", "test": "NanoBRET live-cell target engagement, CDK11A-NanoLuc/Cyclin L2 in HEK-293", "type": "binding", "conditions": "CDK11a/L2, 10µM"}, "[9]": {"target": "CDK7 (Homo sapiens, UniProt P50613)", "sequence (P50613 whole entry)": "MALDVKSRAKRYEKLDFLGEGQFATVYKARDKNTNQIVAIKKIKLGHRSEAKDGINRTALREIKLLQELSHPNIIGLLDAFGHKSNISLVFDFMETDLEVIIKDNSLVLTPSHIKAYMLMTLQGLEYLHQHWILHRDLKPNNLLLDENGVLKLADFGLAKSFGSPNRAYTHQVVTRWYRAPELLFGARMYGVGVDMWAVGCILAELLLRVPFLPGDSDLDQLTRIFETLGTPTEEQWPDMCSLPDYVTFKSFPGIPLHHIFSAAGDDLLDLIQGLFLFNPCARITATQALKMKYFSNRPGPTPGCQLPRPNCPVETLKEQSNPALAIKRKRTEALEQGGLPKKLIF", "test": "NanoBRET live-cell target engagement, NanoLuc-CDK7 in HEK-293", "type": "binding", "conditions": "CDK7, 10µM"}, "[10]": {"target": "CDK11B/Cyclin L2 (Homo sapiens, UniProt P21127)", "sequence (P21127 1-782 isoform P21127-2)": "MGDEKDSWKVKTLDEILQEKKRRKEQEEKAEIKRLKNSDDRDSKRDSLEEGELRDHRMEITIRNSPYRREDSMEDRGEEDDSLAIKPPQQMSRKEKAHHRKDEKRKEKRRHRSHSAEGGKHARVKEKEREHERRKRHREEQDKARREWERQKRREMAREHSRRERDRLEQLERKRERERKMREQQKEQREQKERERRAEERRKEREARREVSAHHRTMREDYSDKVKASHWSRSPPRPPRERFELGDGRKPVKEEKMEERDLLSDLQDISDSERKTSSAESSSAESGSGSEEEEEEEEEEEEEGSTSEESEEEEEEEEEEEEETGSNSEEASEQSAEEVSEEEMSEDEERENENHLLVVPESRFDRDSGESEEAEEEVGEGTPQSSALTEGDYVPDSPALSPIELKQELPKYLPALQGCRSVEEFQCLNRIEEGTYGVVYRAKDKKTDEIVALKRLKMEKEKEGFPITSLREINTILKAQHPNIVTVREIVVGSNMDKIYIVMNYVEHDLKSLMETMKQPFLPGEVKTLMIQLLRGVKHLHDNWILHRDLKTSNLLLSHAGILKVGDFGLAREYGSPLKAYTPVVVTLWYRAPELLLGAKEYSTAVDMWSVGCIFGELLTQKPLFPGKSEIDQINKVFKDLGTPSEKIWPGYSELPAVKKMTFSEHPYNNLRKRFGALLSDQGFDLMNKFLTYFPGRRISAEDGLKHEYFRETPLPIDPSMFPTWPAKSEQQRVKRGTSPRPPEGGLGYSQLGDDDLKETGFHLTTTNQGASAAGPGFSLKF", "test": "NanoBRET live-cell target engagement, CDK11B-NanoLuc/Cyclin L2 in HEK-293", "type": "binding", "conditions": "CDK11b/L2, 10µM"}, "[11]": {"target": "CDK5/CDK5R1 (Homo sapiens, UniProt Q00535)", "test": "NanoBRET live-cell target engagement, CDK5-NanoLuc/CDK5R1 in HEK-293", "type": "binding", "conditions": "CDK5/CDK5R1, 10µM"}, "[12]": {"target": "CDK14/Cyclin Y (Homo sapiens, UniProt O94921)", "test": "NanoBRET live-cell target engagement, CDK14-NanoLuc/Cyclin Y in HEK-293", "type": "binding", "conditions": "CDK14/Y, 10µM"}, "[13]": {"target": "CDK1/Cyclin E1 (Homo sapiens, UniProt P06493)", "test": "NanoBRET live-cell target engagement, CDK1-NanoLuc/Cyclin E1 in HEK-293", "type": "binding", "conditions": "CDK1/E1, 10µM"}, "[14]": {"target": "CDK19/Cyclin C (Homo sapiens, UniProt Q9BWU1)", "sequence (Q9BWU1 whole entry)": "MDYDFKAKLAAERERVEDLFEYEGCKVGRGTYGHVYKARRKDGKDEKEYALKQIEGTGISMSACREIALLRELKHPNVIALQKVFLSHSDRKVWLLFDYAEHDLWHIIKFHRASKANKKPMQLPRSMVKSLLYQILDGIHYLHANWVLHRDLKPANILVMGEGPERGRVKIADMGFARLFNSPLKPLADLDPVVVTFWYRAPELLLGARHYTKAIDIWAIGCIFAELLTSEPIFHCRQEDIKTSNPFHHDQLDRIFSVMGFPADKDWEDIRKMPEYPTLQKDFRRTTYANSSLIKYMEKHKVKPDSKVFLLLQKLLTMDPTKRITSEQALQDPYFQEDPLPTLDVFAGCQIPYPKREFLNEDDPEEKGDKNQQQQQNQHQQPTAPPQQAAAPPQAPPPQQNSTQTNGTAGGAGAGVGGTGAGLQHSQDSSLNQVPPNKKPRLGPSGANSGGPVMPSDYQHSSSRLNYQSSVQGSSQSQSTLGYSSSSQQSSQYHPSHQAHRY", "sequence (P24863 whole entry partner)": "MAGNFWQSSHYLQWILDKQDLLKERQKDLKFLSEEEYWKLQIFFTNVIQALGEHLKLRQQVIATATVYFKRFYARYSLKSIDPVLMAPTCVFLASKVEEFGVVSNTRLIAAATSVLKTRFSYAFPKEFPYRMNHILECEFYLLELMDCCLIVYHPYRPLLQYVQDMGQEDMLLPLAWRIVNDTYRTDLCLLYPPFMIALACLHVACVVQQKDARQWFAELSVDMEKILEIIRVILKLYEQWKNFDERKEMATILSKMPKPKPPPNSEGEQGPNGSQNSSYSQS", "test": "NanoBRET live-cell target engagement, NanoLuc-CDK19/Cyclin C in HEK-293", "conditions": "10µM"}, "[15]": {"target": "CDK17/Cyclin Y (Homo sapiens, UniProt Q00537)", "sequence (Q00537 whole entry)": "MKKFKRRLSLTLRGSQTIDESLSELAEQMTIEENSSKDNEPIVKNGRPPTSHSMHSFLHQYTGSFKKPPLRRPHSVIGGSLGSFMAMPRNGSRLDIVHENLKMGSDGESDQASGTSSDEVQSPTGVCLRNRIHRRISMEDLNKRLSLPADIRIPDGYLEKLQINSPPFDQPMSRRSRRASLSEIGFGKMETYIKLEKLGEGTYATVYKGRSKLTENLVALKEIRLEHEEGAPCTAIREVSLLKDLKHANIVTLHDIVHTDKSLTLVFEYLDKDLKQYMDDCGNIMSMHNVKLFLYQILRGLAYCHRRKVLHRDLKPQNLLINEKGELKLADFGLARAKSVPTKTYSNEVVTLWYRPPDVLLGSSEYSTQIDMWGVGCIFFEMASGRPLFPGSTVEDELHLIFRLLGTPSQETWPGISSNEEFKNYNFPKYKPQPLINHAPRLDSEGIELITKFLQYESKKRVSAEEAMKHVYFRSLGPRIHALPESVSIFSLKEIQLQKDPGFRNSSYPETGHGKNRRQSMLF", "sequence (Q8ND76 whole entry partner)": "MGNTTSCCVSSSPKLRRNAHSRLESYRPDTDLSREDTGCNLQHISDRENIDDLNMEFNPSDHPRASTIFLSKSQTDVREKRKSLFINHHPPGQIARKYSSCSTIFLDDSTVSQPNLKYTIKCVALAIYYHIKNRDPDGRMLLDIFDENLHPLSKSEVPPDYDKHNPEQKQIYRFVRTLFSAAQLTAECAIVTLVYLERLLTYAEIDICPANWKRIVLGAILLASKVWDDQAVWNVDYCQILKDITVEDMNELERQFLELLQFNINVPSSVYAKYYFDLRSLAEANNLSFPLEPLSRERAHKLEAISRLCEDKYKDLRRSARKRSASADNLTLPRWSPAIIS", "test": "NanoBRET live-cell target engagement, CDK17-NanoLuc/Cyclin Y in HEK-293", "type": "binding", "conditions": "CDK17/Y, 10µM"}, "[16]": {"target": "CDK15/Cyclin Y (Homo sapiens, UniProt Q96Q40)", "test": "NanoBRET live-cell target engagement, NanoLuc-CDK15/Cyclin Y in HEK-293", "type": "binding", "conditions": "CDK15/Y, 10µM"}, "[17]": {"target": "CDK8/Cyclin C (Homo sapiens, UniProt P49336)", "sequence (P49336 whole entry)": "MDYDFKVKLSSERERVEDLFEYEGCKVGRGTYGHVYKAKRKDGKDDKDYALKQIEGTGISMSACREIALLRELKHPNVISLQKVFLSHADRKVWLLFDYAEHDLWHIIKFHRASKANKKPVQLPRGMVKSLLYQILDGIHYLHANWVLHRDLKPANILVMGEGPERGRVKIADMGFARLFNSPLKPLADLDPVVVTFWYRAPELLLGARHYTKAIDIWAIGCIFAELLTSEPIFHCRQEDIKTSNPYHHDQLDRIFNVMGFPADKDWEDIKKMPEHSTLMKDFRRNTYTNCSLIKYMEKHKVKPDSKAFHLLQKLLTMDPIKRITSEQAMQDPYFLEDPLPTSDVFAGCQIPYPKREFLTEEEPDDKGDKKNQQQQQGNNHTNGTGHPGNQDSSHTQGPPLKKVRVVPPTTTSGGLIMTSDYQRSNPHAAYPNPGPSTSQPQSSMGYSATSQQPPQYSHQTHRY", "sequence (P24863 whole entry partner)": "as the sequence (P24863 whole entry partner) above", "test": "NanoBRET live-cell target engagement, NanoLuc-CDK8/Cyclin C in HEK-293", "type": "binding", "conditions": "CDK8/C, 10µM"}, "[18]": {"target": "CDK6/Cyclin D1 (Homo sapiens, UniProt Q00534)", "test": "NanoBRET live-cell target engagement, NanoLuc-CDK6/Cyclin D1 in HEK-293", "type": "binding", "conditions": "CDK6/D1, 10µM"}, "[19]": {"target": "CDK10/Cyclin L2 (Homo sapiens, UniProt Q15131)", "test": "NanoBRET live-cell target engagement, CDK10-NanoLuc/Cyclin L2 in HEK-293", "conditions": "10µM"}, "[20]": {"conditions": "average of replicates, read-out: Inhibition at 10µM (%) Average"}, "[21]": {"conditions": "read-out: Inhibition at 10µM (%) Replicate 1"}, "[22]": {"conditions": "read-out: Inhibition at 10µM (%) Replicate 2"}}, "note": "Read-outs that look alike come from different tables or passages of the source."}
{"molecule": "COc1cc(F)ccc1-c1ncnc(Nc2cccc(C[S@](C)(=N)=O)c2)n1", "note": "[Atuveciclib]", "values": [{"measurement": "inhibition at 10 µM", "setting": "[1]; [20]", "result": 4.8, "unit": "%"}, {"measurement": "inhibition at 10 µM", "setting": "[1]; [21]", "result": 8, "unit": "%"}, {"measurement": "inhibition at 10 µM", "setting": "[1]; [22]", "result": 1.6, "unit": "%"}, {"measurement": "inhibition at 10 µM", "setting": "[2]; [20]", "result": 41.7, "unit": "%"}, {"measurement": "inhibition at 10 µM", "setting": "[2]; [21]", "result": 42.9, "unit": "%"}, {"measurement": "inhibition at 10 µM", "setting": "[2]; [22]", "result": 40.5, "unit": "%"}, {"measurement": "inhibition at 10 µM", "setting": "[3]; read-out: Inhibition at 10µM (%) Replicate 1, CDK20/H", "result": 1.3, "unit": "%"}, {"measurement": "inhibition at 10 µM", "setting": "[3]; read-out: Inhibition at 10µM (%) Replicate 2, CDK20/H", "result": 1.3, "unit": "%"}, {"measurement": "inhibition at 10 µM", "setting": "[4]; [21]", "result": 39.3, "unit": "%"}, {"measurement": "inhibition at 10 µM", "setting": "[4]; [22]", "result": 37.9, "unit": "%"}, {"measurement": "inhibition at 10 µM", "setting": "[5]; [20]", "result": 19.9, "unit": "%"}, {"measurement": "inhibition at 10 µM", "setting": "[5]; [21]", "result": 17.3, "unit": "%"}, {"measurement": "inhibition at 10 µM", "setting": "[5]; [22]", "result": 22.4, "unit": "%"}, {"measurement": "inhibition at 10 µM", "setting": "[6]; [20]", "result": 31.5, "unit": "%"}, {"measurement": "inhibition at 10 µM", "setting": "[6]; [21]", "result": 53.7, "unit": "%"}, {"measurement": "inhibition at 10 µM", "setting": "[6]; [22]", "result": 9.3, "unit": "%"}, {"measurement": "inhibition at 10 µM", "setting": "[7]; [20]", "result": 97.9, "unit": "%"}, {"measurement": "inhibition at 10 µM", "setting": "[7]; [21]", "result": 98.1, "unit": "%"}, {"measurement": "inhibition at 10 µM", "setting": "[7]; [22]", "result": 97.6, "unit": "%"}, {"measurement": "inhibition at 10 µM", "setting": "[8]; [20]", "result": 10, "unit": "%"}, {"measurement": "inhibition at 10 µM", "setting": "[8]; [21]", "result": 12.3, "unit": "%"}, {"measurement": "inhibition at 10 µM", "setting": "[8]; [22]", "result": 7.6, "unit": "%"}, {"measurement": "inhibition at 10 µM", "setting": "[9]; [20]", "result": 16.8, "unit": "%"}, {"measurement": "inhibition at 10 µM", "setting": "[9]; [21]", "result": 22, "unit": "%"}, {"measurement": "inhibition at 10 µM", "setting": "[9]; [22]", "result": 11.6, "unit": "%"}, {"measurement": "inhibition at 10 µM", "setting": "[10]; [20]", "result": 7.4, "unit": "%"}, {"measurement": "inhibition at 10 µM", "setting": "[10]; [21]", "result": 11.9, "unit": "%"}, {"measurement": "inhibition at 10 µM", "setting": "[10]; [22]", "result": 2.9, "unit": "%"}, {"measurement": "inhibition at 10 µM", "setting": "[11]; [20]", "result": 26.1, "unit": "%"}, {"measurement": "inhibition at 10 µM", "setting": "[11]; [21]", "result": 23.9, "unit": "%"}, {"measurement": "inhibition at 10 µM", "setting": "[11]; [22]", "result": 28.3, "unit": "%"}, {"measurement": "inhibition at 10 µM", "setting": "[12]; [20]", "result": 3, "unit": "%"}, {"measurement": "inhibition at 10 µM", "setting": "[12]; [21]", "result": 8.4, "unit": "%"}, {"measurement": "inhibition at 10 µM", "setting": "[12]; [22]", "result": -2.5, "unit": "%"}, {"measurement": "inhibition at 10 µM", "setting": "[13]; [20]", "result": 16.6, "unit": "%"}, {"measurement": "inhibition at 10 µM", "setting": "[13]; [21]", "result": 19.4, "unit": "%"}, {"measurement": "inhibition at 10 µM", "setting": "[13]; [22]", "result": 13.8, "unit": "%"}, {"measurement": "inhibition at 10 µM", "setting": "[14]; read-out: Inhibition at 10µM (%) Average, CDK19/C, average of replicates", "result": 11.1, "unit": "%"}, {"measurement": "inhibition at 10 µM", "setting": "[14]; read-out: Inhibition at 10µM (%) Replicate 1, CDK19/C", "result": 12.3, "unit": "%"}, {"measurement": "inhibition at 10 µM", "setting": "[14]; read-out: Inhibition at 10µM (%) Replicate 2, CDK19/C", "result": 9.9, "unit": "%"}, {"measurement": "inhibition at 10 µM", "setting": "[15]; [20]", "result": 31, "unit": "%"}, {"measurement": "inhibition at 10 µM", "setting": "[15]; [21]", "result": 30.9, "unit": "%"}, {"measurement": "inhibition at 10 µM", "setting": "[15]; [22]", "result": 31.1, "unit": "%"}, {"measurement": "inhibition at 10 µM", "setting": "[16]; [20]", "result": 4.5, "unit": "%"}, {"measurement": "inhibition at 10 µM", "setting": "[16]; [21]", "result": 2, "unit": "%"}, {"measurement": "inhibition at 10 µM", "setting": "[16]; [22]", "result": 7.1, "unit": "%"}, {"measurement": "inhibition at 10 µM", "setting": "[17]; [20]", "result": 3, "unit": "%"}, {"measurement": "inhibition at 10 µM", "setting": "[17]; [21]", "result": -1, "unit": "%"}, {"measurement": "inhibition at 10 µM", "setting": "[17]; [22]", "result": 7, "unit": "%"}, {"measurement": "inhibition at 10 µM", "setting": "[18]; [20]", "result": 64.1, "unit": "%"}, {"measurement": "inhibition at 10 µM", "setting": "[18]; [21]", "result": 61.7, "unit": "%"}, {"measurement": "inhibition at 10 µM", "setting": "[18]; [22]", "result": 66.4, "unit": "%"}, {"measurement": "inhibition at 10 µM", "setting": "[19]; read-out: Inhibition at 10µM (%) Average, CDK10/L2, average of replicates", "result": 6.3, "unit": "%"}, {"measurement": "inhibition at 10 µM", "setting": "[19]; read-out: Inhibition at 10µM (%) Replicate 1, CDK10/L2", "result": 9.2, "unit": "%"}, {"measurement": "inhibition at 10 µM", "setting": "[19]; read-out: Inhibition at 10µM (%) Replicate 2, CDK10/L2", "result": 3.4, "unit": "%"}]}
